In PMC8868346, “Novel Series of Dual NRF2 Inducers and Selective MAO-B Inhibitors for the Treatment of Parkinson’s Disease” (Antioxidants, 2022):
Like-named read-outs stand apart in the source and are kept apart here.

Legend:
[1] = Blood–brain barrier permeation assay (PAMPA); settings: for PAMPA Prediction: BBB permeability class from Pe
Procedure: (§7) Briefly, permeability of the compounds was measured at an initial concentration of 100 µM, including positive and negative controls (Supplementary Data; Table S3). […] After 5 min, 180 µL of each compound solution in PBS (10 mM, pH 7.4) was added to determine their ability to pass the membrane (VD). The 96-well acceptor plate (Multiscreen, Millipore Corp., Madrid Spain) was loaded with 180 µL of PBS (VA). Then, the donor filter plate was carefully placed on the acceptor plate to form a sandwich-like system, which was left undisturbed for 4 h at room temperature. After incubation, the donor plate was removed and the absorbance at the maximum absorption wavelength for each compound was recorded in both the acceptor and donor wells (150 µL/well) using a UV plate reader SPECTROstar Nano (BMG Labtech, Ortenberg, Germany). Concentration of the compounds in the donor and acceptor plates and equilibrium concentration were calculated and expressed as permeability (Pe) according the Equation (1). Results are expressed as mean ± standard error of the mean (SEM) of at least three different experiments in duplicate:(1) logPe =log{C×−ln(1−[drug]acceptor/[drug]equilibrium)} where C=(VD×VA/(VD +VA)×Area×Time) .

hrMAO-A = molecular target: T1, hrMAO-A (Homo sapiens, UniProt P21397); assay: Inhibition of monoamine oxidase A (Amplex UltraRed, tyramine); format: biochemical
T1 construct: purchased Sigma–Aldrich
T1 sequence (P21397 1-527): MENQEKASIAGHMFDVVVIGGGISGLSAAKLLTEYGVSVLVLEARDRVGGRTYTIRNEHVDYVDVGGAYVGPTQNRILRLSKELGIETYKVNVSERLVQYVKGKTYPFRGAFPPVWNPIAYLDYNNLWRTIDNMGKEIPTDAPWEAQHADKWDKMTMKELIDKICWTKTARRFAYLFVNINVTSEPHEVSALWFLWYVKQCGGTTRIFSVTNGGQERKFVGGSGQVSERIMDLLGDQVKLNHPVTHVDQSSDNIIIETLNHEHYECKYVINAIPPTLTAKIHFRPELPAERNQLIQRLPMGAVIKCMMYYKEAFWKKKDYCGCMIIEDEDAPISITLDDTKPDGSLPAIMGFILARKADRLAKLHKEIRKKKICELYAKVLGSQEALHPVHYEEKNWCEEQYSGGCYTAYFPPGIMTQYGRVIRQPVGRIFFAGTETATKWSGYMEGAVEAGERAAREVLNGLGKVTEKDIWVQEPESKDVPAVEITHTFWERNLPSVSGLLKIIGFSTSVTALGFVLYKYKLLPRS

[2] = system: Mixed primary glial cultures; assay: Cytotoxicity in mixed primary glial cultures (MTT); settings: MTT reduction
Procedure: Mixed primary glial cultures were obtained from cerebral cortex of 2–5-day-old Sprague–Dawley rats. Blood vessels and meninges were first removed in Hank’s balanced salt solution (HBSS) and then forebrains were dissociated in DMEM/F12 medium. After mechanical dissociation, filtering, and centrifugation at 800 rpm for 10 min, cells were plated at a density of 30,000 cells/well in DMEM/F12 medium with 20% (v/v) FBS and 1% penicillin/streptomycin (10,000 units). […] After 5 days, medium was substituted by DMEM/F12 medium with 10% (v/v) FBS. Cells were cultured for 7–10 days before treatment.
(§1) Basal absorbance was set to 100% and results were normalized to basal conditions.
(§2) Cytotoxicity. LD50 values in several cell cultures employed
(§3) Table S2. Cytotoxicity elicited by 10-18 compounds in SH-SY5Y, AREc32 and mixed pr imary glial cultures. Viability was measured as MTT reduction in presence of increasing concentrations of der ivatives. LD50 values were calcula ted from dose-response curves. Data are expr essed as mean ± SEM of at least 3 independent experiments.
(§4) 1.3. PAMPA control compounds (BBB permeability)
(§5) Table S3. Pr ediction of the BBB passive permeability of control compounds

[3] = system: blood-brain barrier (passive diffusion); assay: in vitro; settings: PAMPA, pH 7.4
Procedure: as §7

MAO-B = molecular target: T2, MAO-B (Homo sapiens, UniProt P27338); assay: MAO-B reversibility assay (pre-incubation times); format: biochemical; settings: 0, 15, 30 min pre-incubation at […] IC50
T2 construct: purchased Sigma–Aldrich
T2 sequence (P27338 1-520): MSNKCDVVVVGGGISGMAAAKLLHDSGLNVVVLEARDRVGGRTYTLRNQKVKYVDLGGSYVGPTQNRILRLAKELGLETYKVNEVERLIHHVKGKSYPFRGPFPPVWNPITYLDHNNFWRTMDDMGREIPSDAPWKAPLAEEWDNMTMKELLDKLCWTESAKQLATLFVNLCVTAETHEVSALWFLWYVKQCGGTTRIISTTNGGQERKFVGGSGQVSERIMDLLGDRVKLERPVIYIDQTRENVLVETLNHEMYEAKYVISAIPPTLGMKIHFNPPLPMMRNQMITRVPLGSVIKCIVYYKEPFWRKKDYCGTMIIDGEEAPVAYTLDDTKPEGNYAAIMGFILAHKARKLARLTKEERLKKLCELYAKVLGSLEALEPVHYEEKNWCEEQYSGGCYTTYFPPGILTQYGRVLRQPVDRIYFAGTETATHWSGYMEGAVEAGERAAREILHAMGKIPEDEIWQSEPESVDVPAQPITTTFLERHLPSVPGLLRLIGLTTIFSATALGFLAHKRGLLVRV

SH-SY5Y cells [4] = assay: Neuroprotection in SH-SY5Y against 6-hydroxydopamine (MTT); format: cell-based, human; settings: 6-OHDA 100 µM; compound 0.1 µM, 24 h pre- and 24 h co-incubation
Procedure: (§6) Cells were seeded at a density of 60,000 cells/well in 96-well transparent plates for 24 h. Then cells were pre-incubated with the corresponding compound at 0.1 μM. After 24 h, the medium was removed and replaced with 1% (v/v) FBS media containing the corresponding compound at 0.1 µM and the selected toxic stimuli, namely a mixture of rotenone and oligomycin A (R/O; 30/10 μM, respectively; Sigma–Aldrich, Spain) or 6-hydroxydopamine (100 µM; Sigma–Aldrich, Spain). […].

SH-SY5Y = settings: MTT reduction
Procedure: They were recovered by centrifugation at 800 rpm for 10 min. Cells from the third to twelfth passage were seeded at a density of 80,000 cells/well in 96-well plates for the neuroprotection studies.
as §1, §2, §3, §4, §5

SH-SY5Y cells [5] = assay: Neuroprotection in SH-SY5Y against rotenone/oligomycin A (MTT); format: cell-based, human; settings: compound 0.1 µM, 24 h pre- and 24 h co-incubation
Procedure: as §6

AREc32 = settings: MTT reduction
Procedure: AREc32 cells, shared by CR Wolf, were grown in Dulbecco’s modified Eagle medium (DMEM) with GlutaMAX (Gibco, Invitrogen, Madrid, Spain), supplemented with 10% (v/v) filtrated fetal bovine serum (FBS; Gibco, Invitrogen, Madrid, Spain), 1% of antibiotics penicillin-streptomycin, and geneticin (0.8 mg/mL G418; Gibco, Invitrogen, Madrid, Spain). […] They were recovered by centrifugation at 800 rpm for 10 min. Cells were used from the third to twelfth passage.
as §1, §2, §3, §4, §5

hrMAO-B = molecular target: T3, hrMAO-B (Homo sapiens, UniProt P27338); assay: Inhibition of monoamine oxidase B (Amplex UltraRed, tyramine); format: biochemical; settings: for Selectivity Index (MAO-A/MAO-B): ratio IC50 MAO-A/IC50 MAO-B
T3 construct: purchased Sigma–Aldrich
T3 sequence (P27338 1-520): T2 sequence (P27338 1-520)

NRF2 = NRF2 induction, luciferase activity in AREc32 reporter cells; format: cell-based, human; settings: for fold potentiation of NRF2 induction compared to the corresponding -OMe derivative: 11, 12 vs 10, 14, 15 vs 13; for EC50: Homo sapiens, read-out: CD (µM) NRF2 Induction; for EC50 / CD (µM) NRF2 Induction: AREc32 cells, 24 h, concentration required to double luciferase activity compared to basal
Procedure: Cells were used from the third to twelfth passage.
AREc32 cells were stably transfected with the plasmid pGL-8xARE that implements 8 copies of the antioxidant response element (ARE) sequences followed by luciferase reporter gen. Therefore, NRF2 induction can be related to the activation of ARE sequences by measuring luciferase activity in terms of luminescence production. For NRF2 induction experiments, cells were plated in 96 white flat bottom well plates (20,000 cells/well). After 24 h, cells were incubated with selected compounds at the desired concentrations in duplicates for 24 h. The Luciferase Assay System (Promega E1500) was used according to provider protocol and luminescence was quantified in an Orion II microplate luminometer (Berthold, Germany). Fold induction of luciferase activity was normalized to basal conditions. Data were expressed as CD values, which means the concentration needed to duplicate the luciferase activity compared to basal conditions. CD values were calculated from dose–response curves fitted by non-linear regression for each compound after logarithmic transformation of the data using GraphPad Prism 8.0 software.

[6] = system: blood-brain barrier (passive diffusion); assay: Blood–brain barrier permeation assay (PAMPA); settings: PAMPA, pH 7.4
Procedure: as §7

[7] = Oxygen radical absorbance capacity (ORAC) assay; settings: Trolox equivalents; AAPH, fluorescein
Procedure: The ORAC test was performed to evaluate the oxygen free radical scavenger capacity of the compounds. […] Compounds at desired concentrations (0.03, 0.1, 0.3, 1, 3, and 10 µM) were diluted in phosphate-buffered saline (PBS; 10 mM, pH 7.4) at 37 °C and placed in a 96 black flat bottom well plate. […] A fluorescence measurement was done first to determine the basal signal. Then, 25 µL of 2, 2′-azobis-amidinopropane dihydrochloride (AAPH) (12 mM final concentration) was quickly added. All samples were measured in duplicates in three different experiments. […] Results were expressed in terms of Trolox equivalents (T.eq.), obtained by plotting net AUC versus compound concentration, then performing linear regression and normalizing slopes of the compounds considering Trolox as reference.

[8] = 30 min pre-incubation, 37 °C, read-out: IC50 MAO-A
[9] = 30 min pre-incubation, 37 °C, read-out: IC50 MAO-B

| Compound | PAMPA Prediction [1] | IC50 (hrMAO-A) [µM] | LD50 (µM) Mixed primary glial cultures [2] [µM] | Papp [3] [×10⁻⁶ cm/s] | MAO-B inhibition reversibility (MAO-B) | 6-OHDA Protection (%) (SH-SY5Y cells [4]) | LD50 (µM) SH-SY5Y (SH-SY5Y) [µM] | R/O (30/10 µM) Protection (%) (SH-SY5Y cells [5]) | LD50 (µM) AREc32 (AREc32) [µM] | IC50 (hrMAO-B) [µM] | fold potentiation of NRF2 induction compared to the corresponding -OMe derivative (NRF2) [fold] | EC50 (NRF2) [µM] | IC50 (hrMAO-A; [8]) [µM] | Papp at 4 h, 100 µM [6] [×10⁻⁶ cm/s] | PAMPA Pe (10^−6 cm s^−1) ([1]; 100 µM, porcine brain lipid, 4 h, PBS pH 7.4) | IC50 (hrMAO-B; [9]) [µM] | ORAC (T. eq.) [7] [T. eq.] | MAO isozyme selectivity (hrMAO-B; MAO-B vs MAO-A) | Selectivity Index (MAO-A/MAO-B) (hrMAO-B) | CD (µM) NRF2 Induction (NRF2) |
| --- | --- | --- | --- | --- | --- | --- | --- | --- | --- | --- | --- | --- | --- | --- | --- | --- | --- | --- | --- | --- |
| Cn1c(=O)c2c(ncn2C)n(C)c1=O [Caffeine, reference compound] | CNS - | – | – | – | – | – | – | – | – | – | – | – | – | – | – | – | – | – | – | – |
| C#CCNCCc1c[nH]c2ccc(OC(=O)C=Cc3ccccc3)cc12 [Compound 11, 3-(2-(Prop-2-yn-1-ylamino)ethyl)-1H-indol-5-yl Cinnamate] | CNS + (CNS + (high BBB permeability): Pe (10^−6 cm s^−1) > 4.0) | 43.8 ± 6.5 | 17.8 ± 2.9 | 5.08 ± 1.7 | reversible inhibition | absence of protection | 16.4 ± 2.32 | 48.6 | 7.83 ± 1.2 | 3 ± 0.21 | 7 | 1.8 ± 0.28 | – | – | – | – | – | – | – | – |
| C#CCNCCc1c[nH]c2ccc(OC(=O)/C=C/c3ccc(C)cc3)cc12 [Compound 12, 3-(2-(Prop-2-yn-1-ylamino)ethyl)-1H-indol-5-yl-(E)-3-(p-tolyl)acrylate] | CNS − (CNS—(low BBB permeability): Pe (10^−6 cm s^−1) < 2.0) | – | 7.42 ± 1.3 | – | – | absence of protection | 11.6 ± 0.90 | 53.5 | 11.1 ± 2.0 | – | 10 | 2.99 ± 0.26 | 59.1 ± 6 | 1.84 ± 0.48 | low Pe value | 3.03 ± 0.27 | – | – | – | – |
| C#CC(=O)NCCc1c[nH]c2ccc(OC)cc12 [Compound 16, N-(2-(5-Methoxy-1H-indol-3-yl)ethyl) Propiolamide] | CNS + (CNS + (high BBB permeability): Pe (10^−6 cm s^−1) > 4.0) | – | 8.81 ± 2.2 | – | – | 48.1% | 4.87 ± 0.60 | 47.3 | – | – | – | 1.35 ± 0.12 | > 100 | 6.64 ± 1.3 | – | > 100 | 2.67 ± 0.14 | not active | at least 2 | – |
| C#CC(=O)NCCc1c[nH]c2ccc(OC(=O)C=Cc3ccccc3)cc12 [Compound 17, 3-(2-Propiolamidoethyl)-1H-indol-5-yl Cinnamate] | – | – | – | – | reversible inhibition | 58.4% | 9.06 ± 0.31 | 49.3 | < 1 | – | – | – | > 100 | 3.12 ± 1.2 | – | 50 ± 2.9 | 2.27 ± 0.08 | – | – | no activity |
| C#CC(=O)NCCc1c[nH]c2ccc(OC(=O)/C=C/c3ccc(C)cc3)cc12 [Compound 18, 3-(2-Propiolamidoethyl)-1H-indol-5-yl-(E)-3-(p-tolyl) Acrylate] | – | – | 1.21 ± 0.24 | – | – | 43.8% | – | 32.1 | < 1 | – | – | – | 81.9 ± 5.4 | 2.04 ± 3.2 | – | 13.9 ± 1.2 | 1.42 ± 0.13 | – | 5.89 | no activity |
| CC(C)(C)c1cc(O)ccc1O [TBHQ, Tert-Butylhydroquinone, reference compound] | – | – | – | – | – | – | – | – | – | – | – | 1.82 ± 0.09 | – | – | – | – | – | – | – | – |
